Tests used:
[1] = molecular target: Small conductance calcium-activated potassium channel (Rattus norvegicus) (UniProt P70604+P70606+P70605); assay: The ratio of compound concentrations and dequalinium that cause 50% inhibition of the after-hyperpolarization; format: functional
[2] = molecular target: Small conductance calcium-activated potassium channel (Rattus norvegicus, UniProt P70604+P70606+P70605); assay: The blocking of apamin-sensitive [Ca2+]-activated K+ (SKCa) channel was assessed by the compounds ability to inhibit the after-hyperpolarization in cultured rat superior cervical ganglion neurons; format: functional

Row | EMR [1] | IC50 [2] [nM] | Compound
1 | 0.18 | 70 | c1cc2cc(c1)CNc1cc[n+](c3ccccc13)Cc1ccc(cc1)C[n+]1ccc(c3ccccc31)NC2
2 | 1.1 | 250 | C1=C\c2ccc(cc2)C[n+]2ccc(c3ccccc32)NCc2ccc(cc2)Cc2ccc(cc2)CNc2cc[n+](c3ccccc23)Cc2ccc/1cc2
3 | 0.22 | 130 | c1cc2cc(c1)CNc1cc[n+](c3ccccc13)Cc1cccc(c1)C[n+]1ccc(c3ccccc31)NC2
4 | 0.24 | 190 | Nc1cc[n+](Cc2ccc(/C=C\c3ccc(C[n+]4ccc(N)c5ccccc54)cc3)cc2)c2ccccc12
5 | 1.32 | – | Nc1cc[n+](Cc2cccc(C[n+]3ccc(N)c4ccccc43)c2)c2ccccc12
6 | 0.33 | 310 | Nc1cc[n+](Cc2ccc3c(c2)Cc2cc(C[n+]4ccc(N)c5ccccc54)ccc2-3)c2ccccc12
7 | 0.11 | 90 | c1ccc2c(c1)c1cc[n+]2Cc2ccc3c(c2)Cc2cc(ccc2-3)C[n+]2ccc(c3ccccc32)NCCCCCCCCCCN1
8 | 0.019 | 25 | COc1c2cccc1C[n+]1ccc(c3ccccc31)NCc1ccc(cc1)CNc1cc[n+](c3ccccc13)C2
9 | 0.16 | 100 | Oc1c2cc(I)cc1C[n+]1ccc(c3ccccc31)NCc1ccc(cc1)CNc1cc[n+](c3ccccc13)C2
10 | 0.59 | 360 | Nc1cc[n+](Cc2ccc(-c3cccc(-c4ccc(C[n+]5ccc(N)c6ccccc65)cc4)n3)cc2)c2ccccc12
11 | 0.26 | 150 | c1ccc2c(c1)c1cc[n+]2Cc2ccc(cc2)-c2ccc(cc2)C[n+]2ccc(c3ccccc32)NCc2ccc(cc2)Cc2ccc(cc2)CN1
12 | 0.26 | 170 | c1ccc2c(c1)c1cc[n+]2Cc2ccc(cc2)-c2ccc(cc2)C[n+]2ccc(c3ccccc32)NCCCCCCCCCCN1
13 | 0.55 | 290 | Nc1cc[n+](Cc2cccc(-c3cccc(C[n+]4ccc(N)c5ccccc54)c3)c2)c2ccccc12
14 | 3.7 | 2800 | Nc1cc[n+](Cc2ccc(C[n+]3ccc(N)c4ccccc43)cc2)c2ccccc12
15 | 0.25 | 210 | c1ccc2c(c1)c1cc[n+]2CCCCCCCCCC[n+]2ccc(c3ccccc32)NCc2ccc(cc2)-c2ccc(cc2)CN1
16 | 0.16 | 80 | c1ccc2c(c1)c1cc[n+]2Cc2ccc(cc2)Cc2ccc(cc2)C[n+]2ccc(c3ccccc32)NCCCCCCCCCCN1 [UCL-1530]
17 | 0.57 | 180 | c1ccc2c(c1)c1cc[n+]2Cc2ccc(cc2)CCc2ccc(cc2)C[n+]2ccc(c3ccccc32)NCCCCCCCCCCN1
18 | 0.28 | 110 | c1cc2cc(c1)-c1cccc(c1)C[n+]1ccc(c3ccccc31)NCCCCCCCCCCNc1cc[n+](c3ccccc13)C2
19 | 0.89 | 430 | c1ccc2c(c1)c1cc[n+]2Cc2ccc(cc2)-c2ccc(cc2)C[n+]2ccc(c3ccccc32)NCc2ccc(cc2)-c2ccc(cc2)CN1
20 | 0.15 | 120 | c1ccc2c(c1)c1cc[n+]2Cc2ccc3c(c2)Cc2cc(ccc2-3)C[n+]2ccc(c3ccccc32)NCc2ccc(cc2)-c2ccc(cc2)CN1
21 | 0.29 | 150 | C1=C\c2ccc(cc2)C[n+]2ccc(c3ccccc32)NCCCCCCCCCCNc2cc[n+](c3ccccc23)Cc2ccc/1cc2
22 | 0.05 | 28 | c1ccc2c(c1)c1cc[n+]2Cc2ccc(cc2)C[n+]2ccc(c3ccccc32)NCc2ccc(cc2)CN1
23 | 0.39 | 450 | Nc1cc[n+](Cc2ccc(Cc3ccc(C[n+]4ccc(N)c5ccccc54)cc3)cc2)c2ccccc12
24 | 1 | 650 | Cc1cc(N)c2ccccc2[n+]1CCCCCCCCCC[n+]1c(C)cc(N)c2ccccc21.[Cl-].[Cl-] [DEQUALINIUM CHLORIDE]
25 | 0.31 | 260 | c1ccc2c(c1)c1cc[n+]2Cc2ccc(cc2)Cc2ccc(cc2)C[n+]2ccc(c3ccccc32)NCc2ccc(cc2)Cc2ccc(cc2)CN1
26 | 0.8 | 280 | c1ccc2c(c1)c1cc[n+]2Cc2ccc(cc2)Cc2ccc(cc2)C[n+]2ccc(c3ccccc32)NCc2ccc(cc2)-c2ccc(cc2)CN1
27 | 0.71 | 410 | Nc1cc[n+](Cc2ccc(CCc3ccc(C[n+]4ccc(N)c5ccccc54)cc3)cc2)c2ccccc12
28 | 0.88 | 380 | c1cc2nc(c1)-c1ccc(cc1)C[n+]1ccc(c3ccccc31)NCc1ccc(cc1)Cc1ccc(cc1)CNc1cc[n+](c3ccccc13)Cc1ccc-2cc1
29 | 0.14 | 60 | Oc1c2cccc1C[n+]1ccc(c3ccccc31)NCc1ccc(cc1)CNc1cc[n+](c3ccccc13)C2

Row | Compound | EMR [1] | IC50 [2] [nM]
30 | Nc1cc[n+](Cc2ccc(-c3ccc(C[n+]4ccc(N)c5ccccc54)cc3)cc2)c2ccccc12 | 0.4 | 380
31 | c1cc2cc(c1)C[n+]1ccc(c3ccccc31)NCc1ccc(cc1)CNc1cc[n+](c3ccccc13)C2 | 0.01 | 3
